From patent US20130171189A1, “INDUCIBLE AND REPRESSIBLE VACCINIA VIRUSES WITH IMPROVED SAFETY” (priority 2011, published 2013)
Where two headings read alike, the source gives them in different places.

Tested on: BS-C-1 cells
Type: cell-based
Settings: vRG0-infected cells
Experimental: EGFP Expression Levels by vRG0 Were not Repressed Even in the Presence of High Concentrations of TCs: To test whether vRG0 was repressible by TCs, BS-C-1 cells were infected with vRG0 in the presence of increasing concentrations of ATC, TET, or DOX. The cytopathic effect observed by brightfield microscopy 2 days post-infection was indistinguishable from the cytopathic effect observed from cells treated with ATC and 10 μg/ml or less of TET or DOX (data not shown).
Since TCs complexed to MgCl2 bind to the TetR repressor with higher affinity than TCs alone (a commonly used strategy when studying induced conformation of the repressor by x-ray crystallography), ATC was incubated with MgCl2 to allow for complex formation.

[1] = 100 μg/ml, 2 days post-infection

SMILES | Cell toxicity [1] | other results
Cc1c2c(c(O)c3c(O)cccc13)C(=O)[C@]1(O)C(=O)C(C(N)=O)=C(O)[C@@H](N(C)C)[C@@H]1C2 [ATC, anhydrotetracycline] | – | Cell toxicity (lower concentrations than TET and DOX): did not incur any toxicity
C[C@H]1c2cccc(O)c2C(=O)C2=C(O)[C@]3(O)C(=O)C(C(N)=O)=C(O)[C@@H](N(C)C)[C@@H]3[C@@H](O)[C@@H]21 [DOX, doxycycline] | morphology associated with cell toxicity | –
[Cl-].[Cl-].[Mg+2] [MgCl2] | – | Cell toxicity (100 mM MgCl2 (ATC-MgCl2), 2 days): toxicity-associated morphology
CN(C)[C@@H]1C(O)=C(C(N)=O)C(=O)[C@@]2(O)C(O)=C3C(=O)c4c(O)cccc4[C@@](C)(O)[C@H]3C[C@@H]12 [TET, tetracycline] | morphology associated with cell toxicity | –
